Measured values taken from US20080287398A1, “COLD MENTHOL RECEPTOR-1 ANTAGONISTS” (priority 2007, published 2008).
Values joined by “and” are separate entries in the source; they are usually repeats but may differ in a detail not shown here. Equal values may be shown once. Read-outs that look alike come from different tables or passages of the source.

Target: T1, canine TRPM8 (Canis lupus familiaris, UniProt Q1A7N1)
T1 construct: expressed in transfected cells
Assay: In vitro canine TRPM8 functional assay (Ca2+-sensitive dye, FLIPR/FDSS, icilin activation)
Type: cell-based
Conditions: HEK293 cells expressing canine TRPM8, icilin activation; for % I (1 μM): 1 μM compound; for IC50: eight-point dose-response; for % I (5 μM): 5 μM compound
Description: The functional activity of compounds of Formula (I) was determined by measuring changes in intracellular calcium concentration using a Ca^2+-sensitive fluorescent dye. The changes in fluorescent signal were monitored by a fluorescence plate reader, either a FLIPR™ (Molecular Devices) or FDSS (Hamamatsu).
HEK293 cells stably expressing canine TRPM8 were routinely grown as monolayers in Dulbecco's minimum essential medium supplemented with 10% FBS, 1 mM L-glutamine, 100 units/mL penicillin, 100 ug/mL streptomycin and 400 μg/mL G418. Cells were maintained in 5% CO2 at 37° C. At 24 hrs prior to assay, cells were seeded in clear-base poly-D-lysine coated 384-well plates (BD Biosciences, NJ, USA) at a density of 5,000 cells per well in culture medium and grown overnight in 5% CO2 at 37° C. On assay day, growth media was removed and cells were loaded with Calcium 3 Dye (Molecular Devices) for 35 min at 37° C., under 5% CO2 and then for 25 min at room temperature and atmosphere. Subsequently, cells were tested for agonist-induced increases in intracellular Ca^2+ levels using FLIPR™ or FDSS. Cells were challenged with a compound of Formula (I) (at varying concentrations) and intracellular Ca^2+ was measured for 5 min prior to the addition of icilin to all wells to achieve a final concentration which produces approximately an 80% maximal response.
Basal FI was subtracted prior to normalizing data to percent of maximal response. Curves were generated using the average of quadruplicate wells for each data point, were analyzed using nonlinear regression of either sigmoidal dose response or sigmoidal dose response (variable slope). Finally, the EC50 and IC50 values were calculated with the best-fit dose curve determined by GraphPad Prism.

[1] = HEK293, 1 μM compound, read-out: % I (1 μM)
[2] = HEK293, read-out: % I (1 μM), 1 μM compound

T1 sequence (Q1A7N1 1-1104): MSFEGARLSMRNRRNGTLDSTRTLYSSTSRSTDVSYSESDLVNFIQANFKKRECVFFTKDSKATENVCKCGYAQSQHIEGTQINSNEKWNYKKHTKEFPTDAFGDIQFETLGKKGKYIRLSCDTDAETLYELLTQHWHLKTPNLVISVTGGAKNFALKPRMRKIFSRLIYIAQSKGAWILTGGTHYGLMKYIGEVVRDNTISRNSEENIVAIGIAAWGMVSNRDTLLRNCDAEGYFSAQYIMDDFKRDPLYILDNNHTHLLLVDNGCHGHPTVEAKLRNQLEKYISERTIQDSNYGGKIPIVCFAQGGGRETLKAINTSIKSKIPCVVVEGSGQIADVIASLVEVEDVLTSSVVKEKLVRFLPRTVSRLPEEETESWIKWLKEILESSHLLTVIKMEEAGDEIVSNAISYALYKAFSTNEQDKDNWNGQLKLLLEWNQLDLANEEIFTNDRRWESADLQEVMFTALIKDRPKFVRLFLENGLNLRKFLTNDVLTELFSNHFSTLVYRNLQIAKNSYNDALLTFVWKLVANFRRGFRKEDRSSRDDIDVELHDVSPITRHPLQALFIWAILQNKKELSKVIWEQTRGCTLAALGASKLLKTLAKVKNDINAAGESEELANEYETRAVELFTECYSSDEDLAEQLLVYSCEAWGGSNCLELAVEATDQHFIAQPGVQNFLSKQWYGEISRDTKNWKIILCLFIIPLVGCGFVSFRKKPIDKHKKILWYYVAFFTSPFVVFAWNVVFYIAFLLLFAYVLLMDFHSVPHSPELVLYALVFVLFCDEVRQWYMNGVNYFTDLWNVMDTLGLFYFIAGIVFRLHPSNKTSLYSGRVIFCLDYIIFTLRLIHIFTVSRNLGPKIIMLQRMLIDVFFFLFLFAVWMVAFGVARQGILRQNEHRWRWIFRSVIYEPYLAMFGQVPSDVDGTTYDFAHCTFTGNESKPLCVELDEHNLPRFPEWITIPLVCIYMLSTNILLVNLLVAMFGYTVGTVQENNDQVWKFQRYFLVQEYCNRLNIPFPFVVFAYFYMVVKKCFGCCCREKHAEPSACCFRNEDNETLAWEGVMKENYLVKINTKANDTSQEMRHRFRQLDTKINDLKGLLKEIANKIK

| inhibition at 1 µM [1] | Structure (SMILES) | % I (1 μM) | IC50 (read-out: IC50) | inhibition at 1 µM [2] | IC50 (IC50 (μM)) | % I (5 μM) |
| --- | --- | --- | --- | --- | --- | --- |
| – | CCOP(=O)(OCC)C(Cc1cccc(C(F)(F)F)c1F)c1sc2ccccc2c1C (stereo not drawn) [Cpd 37] | 100% | 0.127 µM | – | – | – |
| – | CC(C)OP(=O)(OC(C)C)C(Cc1ccc(F)c(F)c1)c1sc2ccccc2c1C1CCCC1 (stereo not drawn) [Cpd 38] | 99% | 0.14 µM | – | – | – |
| – | CCOP(=O)(OCC)C(Cc1cccc(C(F)(F)F)c1)c1cc2ccccc2s1 (stereo not drawn) [Cpd 39] | 100% | 0.141 µM | – | – | – |
| 100% | CC(C)OP(=O)(OC(C)C)C(Cc1ccc(F)c(F)c1)c1sc2ccccc2c1C(F)(F)F (stereo not drawn) [Cpd 43, [2-(3,4-Difluoro-phenyl)-1-(3-trifluoromethyl-benzo[b]-thiophene-2-yl)-ethyl]-phosphonic acid diisopropyl ester] | – | 0.16 µM | – | – | – |
| – | CCOP(=O)(OCC)C(Cc1ccc(F)c(F)c1)c1sc2ccc(F)cc2c1C (stereo not drawn) [Cpd 45, [2-(3,4-Difluoro-phenyl)-1-(5-fluoro-3-methyl-benzo[b]thiophene-2-yl)-ethyl]-phosphonic acid diethyl ester] | – | – | 100% | 0.164 µM | – |
| – | CCOP(=O)(OCC)C(Cc1ccc2ccccc2c1)c1sc2ccccc2c1C (stereo not drawn) [Cpd 46] | 99% | 0.167 µM | – | – | – |
| – | CCOP(=O)(OCC)C(Cc1ccccc1Cl)c1sc2ccccc2c1C (stereo not drawn) [Cpd 48] | 100% | 0.169 µM | – | – | – |
| – | CCOP(=O)(OCC)C(Cc1c(Cl)cccc1Cl)c1sc2ccccc2c1C (stereo not drawn) [Cpd 54] | 100% | 0.23 µM | – | – | – |
| – | CCOP(=O)(OCC)C(Cc1cc(F)cc(C(F)(F)F)c1)c1sc2ccccc2c1C (stereo not drawn) [Cpd 56] | 103% | 0.24 µM | – | – | – |
| – | CCOP(=O)(OCC)C(Cc1cccc(OC(F)(F)F)c1)c1sc2ccccc2c1C (stereo not drawn) [Cpd 57] | 100% | 0.26 µM | – | – | – |
| – | CCOP(=O)(OCC)C(Cc1ccc(C(F)(F)F)c(F)c1)c1cc2ccccc2s1 (stereo not drawn) [Cpd 58] | 100% | 0.27 µM | – | – | – |
| – | CCOP(=O)(OCC)C(Cc1ccccc1C(F)(F)F)c1sc2ccccc2c1C (stereo not drawn) [Cpd 59] | 99% | 0.27 µM | – | – | – |
| – | CCOP(=O)(OCC)C(Cc1c(Cl)ccc(C)c1F)c1sc2ccccc2c1C (stereo not drawn) [Cpd 60] | 100% | 0.28 µM | – | – | – |
| – | CCOP(=O)(OCC)C(Cc1ccccc1OC(F)(F)F)c1sc2ccccc2c1C (stereo not drawn) [Cpd 61] | 100% | 0.28 µM | – | – | – |
| 95% | Cc1ccc2sc(C(Cc3ccc(F)c(F)c3)P(=O)(OC(C)C)OC(C)C)c(C)c2c1 (stereo not drawn) [Cpd 62, 2-(3,4-Difluoro-phenyl)-[1-(3,5-dimethyl-benzo[b]thiophen-2-yl)-ethyl]-phosphonic acid diisopropyl ester] | – | 0.29 µM | – | – | – |
| 100% | CC(C)OP(=O)(OC(C)C)C(Cc1ccc(F)c(F)c1)c1cc2ccccc2s1 (stereo not drawn) [Cpd 63, [1-Benzo[b]thiophen-2-yl-2-(3,4-difluoro-phenyl)-ethyl]-phosphonic acid diisopropyl ester] | – | 0.3 µM | – | – | – |
| – | CCOP(=O)(OCC)C(Cc1ccc(Cl)c(Cl)c1)c1sc2ccccc2c1-c1ccccc1 (stereo not drawn) [Cpd 64, [2-(3,4-Dichloro-phenyl)-1-(3-phenyl-benzo[b]thiophen-2-yl)-ethyl]-phosphonic acid diethyl ester] | – | – | 64% | 0.3 µM | – |
| – | CCOP(=O)(OCC)C(Cc1ccc(F)c(F)c1)c1sc2cccc(Cl)c2c1C (stereo not drawn) [Cpd 65, [1-(4-Chloro-3-methyl-benzo[b]thiophen-2-yl)-2-(3,4-difluoro-phenyl)-ethyl]-phosphonic acid diethyl ester] | – | – | 100% | 0.3 µM | – |
| – | CCOP(=O)(OCC)C(Cc1ccccc1Br)c1sc2ccccc2c1C (stereo not drawn) [Cpd 66] | 100% | 0.33 µM | – | – | – |
| – | CCOP(=O)(OCC)C(Cc1cc(C(F)(F)F)ccc1F)c1sc2ccccc2c1C (stereo not drawn) [Cpd 67] | 100% | 0.33 µM | – | – | – |
| – | CCOP(=O)(OCC)C(Cc1ccc(C(F)(F)F)cc1)c1cc2ccccc2s1 (stereo not drawn) [Cpd 68] | 96% | 0.34 µM | – | – | – |
| – | CC(C)OP(=O)(OC(C)C)C(Cc1cccc(C(F)(F)F)c1)c1cc2ccccc2s1 (stereo not drawn) [Cpd 69] | 99% | 0.35 µM | – | – | – |
| – | CCOP(=O)(OCC)C(Cc1ccc(Br)cc1)c1cc2ccccc2s1 (stereo not drawn) [Cpd 70] | 82% | 0.35 µM | – | – | 99% |

| inhibition at 1 µM [1] | Structure (SMILES) | % I (1 μM) | IC50 (read-out: IC50) | inhibition at 1 µM [2] | IC50 (IC50 (μM)) | % I (5 μM) |
| --- | --- | --- | --- | --- | --- | --- |
| – | CCOP(=O)(OCC)C(Cc1cc2c(cc1Cl)OCO2)c1sc2ccccc2c1C (stereo not drawn) [Cpd 71] | 98% | 0.36 µM | – | – | – |
| – | CCOP(=O)(OCC)C(Cc1cccc(-c2ccncc2)c1)c1sc2ccccc2c1C (stereo not drawn) [Cpd 72, [1-(3-Methyl-benzo[b]thiophen-2-yl)-2-(3-pyridin-4-yl-phenyl)-ethyl]-phosphonic acid diethyl ester] | – | – | 99% | 0.36 µM | – |
| – | CCOP(=O)(OCC)C(Cc1cc(C(F)(F)F)cc(Cl)c1F)c1sc2ccccc2c1C (stereo not drawn) [Cpd 73] | 100% | 0.36 µM | – | – | – |
| – | CCOP(=O)(OCC)C(Cc1ccccc1)c1cc2ccccc2s1 (stereo not drawn) [Cpd 74] | 92% | 0.38 µM | – | – | – |
| – | CCOP(=O)(OCC)C(Cc1cc(F)c(Cl)cc1Cl)c1sc2ccccc2c1C (stereo not drawn) [Cpd 76] | 100% | 0.4 µM | – | – | – |
| – | CCOP(=O)(OCC)C(Cc1cccc(-c2ccccc2)c1)c1sc2ccccc2c1C (stereo not drawn) [Cpd 77] | – | – | 98% | 0.41 µM | – |
| – | CCOP(=O)(OCC)C(Cc1ccc(Cl)c(Cl)c1)c1cc2ccccc2s1 (stereo not drawn) [Cpd 78, [1-Benzo[b]thiophen-2-yl-2-(3,4-dichloro-phenyl)-ethyl]-phosphonic acid diethyl ester] | – | – | 95% | 0.43 µM | – |
| – | CCOP(=O)(OCC)C(C)(Cc1ccc(F)c(F)c1)c1sc2ccccc2c1C (stereo not drawn) [Cpd 79, [2-(3,4-Difluoro-phenyl)-1-methyl-1-(3-methyl-benzo[b]-thiophen-2-yl)-ethyl]-phosphonic acid diethyl ester] | – | – | 88% | 0.43 µM | – |
| – | CCOP(=O)(OCC)C(Cc1ccccc1F)c1cc2ccccc2s1 (stereo not drawn) [Cpd 80] | 93% | 0.43 µM | – | – | 100% |
| – | CCOP(=O)(OCC)C(Cc1cccc(C(F)(F)F)c1Cl)c1sc2ccccc2c1C (stereo not drawn) [Cpd 81] | 100% and 87% | 0.44 µM and 0.61 µM | – | – | – |
| – | CCOP(=O)(OCC)C(Cc1ccc(F)c(F)c1)c1sc2cc(OC)ccc2c1C (stereo not drawn) [Cpd 82, [2-(3,4-Difluoro-phenyl)-1-[6-methoxy-3-methyl-benzo[b]thiophene-2-yl)-ethyl]-phosphonic acid diethyl ester] | – | – | 87% | 0.44 µM | – |
| – | CCOP(=O)(OCC)C(Cc1ccc2ccccc2c1)c1cc2ccccc2s1 (stereo not drawn) [Cpd 83] | 84% | 0.45 µM | – | – | – |
| – | CCOP(=O)(OCC)C(Cc1ccc(F)c(F)c1)c1sc2cccc(C(F)(F)F)c2c1C (stereo not drawn) [Cpd 84] | – | – | 97% | 0.46 µM | – |
| – | CCOP(=O)(OCC)C(Cc1ccccc1Cl)c1cc2ccccc2s1 (stereo not drawn) [Cpd 85] | 90% | 0.48 µM | – | – | 100% |
| – | CCOP(=O)(OCC)C(Cc1ccccc1F)c1csc2ccccc12 (stereo not drawn) [Cpd 86] | – | 0.5 µM | – | – | 101% |
| – | CCOP(=O)(OCC)C(Cc1ccc(F)c(F)c1)C1=C(C)c2ccccc2S1(=O)=O (stereo not drawn) [Cpd 88, [2-(3,4-Difluoro-phenyl)-1-(3-methyl-1,1-dioxo-1H-1λ^6-benzo-[b]thiophen-2-yl)-ethyl]-phosphonic acid diethyl ester] | – | – | 80% | 0.5 µM and 0.54 µM | – |
| – | CCOP(=O)(OCC)C(Cc1ccccc1C)c1cc2ccccc2s1 (stereo not drawn) [Cpd 89] | 91% | 0.52 µM | – | – | 100% |
| – | CCOP(=O)(OCC)C(Cc1cc2ccccc2s1)c1cc2ccccc2s1 (stereo not drawn) [Cpd 90] | 89% | 0.54 µM | – | – | – |
| 91% | Cc1c(C(Cc2ccc(F)c(F)c2)P(=O)(OC(C)C)OC(C)C)sc2ccc(Cl)cc12 (stereo not drawn) [Cpd 92, [1-(5-Chloro-3-methyl-benzo[b]thiophen-2-yl)-2-(3,4-difluoro-phenyl)-ethyl]-phosphonic acid diisopropyl ester] | – | 0.58 µM | – | – | – |
| 80% | CC(C)OP(=O)(OC(C)C)C(Br)(Cc1ccc(F)c(F)c1)c1sc2ccccc2c1Br (stereo not drawn) [Cpd 93, [1-Bromo-1-(3-bromo-benzo[b]thiophen-2-yl)-2-(3,4-difluoro-phenyl)-ethyl]-phosphonic acid diisopropyl ester] | – | 0.58 µM | – | – | – |
| – | CCOP(=O)(Cc1cc2ccccc2s1)OCc1c(Cl)cccc1Cl (stereo not drawn) [Cpd 94, Benzo[b]thiophen-2-ylmethyl-phosphonic acid 2,6-dichloro-benzyl ester ethyl ester] | – | – | 79% | 0.6 µM | 98% |
| – | CCOP(=O)(OCC)C(Cc1c(Cl)cccc1Cl)c1cc2ccccc2s1 (stereo not drawn) [Cpd 95] | 89% | 0.6 µM | – | – | 100% |
